Data on five compounds can be found in patent publication US10494391B2, “Two-component anti-cancer composition” (KING FAHD UNIVERSITY OF PETROLEUM AND MINERALS, priority 2017, dated 2019).

Usually IC50 stands for the concentration at which inhibition is half-maximal.

What all share (assay type): cell-based
Assay [1] has as its system HCT15 (human colon adenocarcinoma) cell line. Briefly: MTT assay for in vitro cytotoxicity, HCT15. Particulars: for antiproliferative potential for HCT15 cells, in words (relative to cisplatin / within the series): comparison of IC50 values; for IC50: 24 h incubation with compound, three independent experiments, read-out: IC50 values against HCT15 cancer cell line. The procedure:
(§1) The anticancer activity of complexes 1-5 was measured using a similar testing protocol reported earlier (M. Altaf et al., New J. Chem. 2015, 39, 377-385, incorporated herein by reference in its entirety) against a panel of representative human tumor cell lines, which included MCF7 (human breast cancer), HCT15 (human colon adenocarcinoma) and A549 (human lung carcinoma) cell lines. The cells were seeded at 3×10^3 cells/well in 100 μL DMEM containing 10% Fetal Bovine Serum (FBS) in 96-well tissue culture plate and incubated for 72 h at 37° C., 5% CO2 in air and 90% relative humidity in CO2 incubator. After incubation, 100 μL of 50, 25 and 12.5 μM solutions of cisplatin and complexes 1-5 prepared in Dulbecco's Modified Eagle's Medium (DMEM), were added to the cells and the cultures were incubated for 24 h. The medium of wells was discarded and 100 μL DMEM containing MTT (0.5 mg/mL) was added to the wells and incubated in CO2 incubator at 37° C. in dark for 4 h. After incubation, a purple colored formazan produced in the cells appeared as dark crystals in the bottom of the wells. The culture medium was discarded from each well carefully to prevent disruption of monolayer and 100 μL of dimethyl sulfoxide (DMSO) was added in each well. The solution in the wells was thoroughly mixed to dissolve the formazan crystals which produce a purple solution. The absorbance of the 96 well-plates was taken at 570 nm with Lab systems Multiskan EX ELISA reader against a reagent blank. The experimental results were presented as micro-mole concentration of 50% cell growth inhibition (IC50) of each compound. The MTT assay was performed in three independent experiments.
(§2) The synthesized gold(I)-phosphine complexes (1 and 2), gold(I)-dithiocarbamates (3-5) and cisplatin (standard classical anticancer drug) were tested for in vitro cytotoxicity against A549, MCF7 and HCT15 human cancer cell lines using MTT assay. The dose-dependent inhibition of cell proliferation was obtained by specific increase in concentration of tested compounds against fixed number of three human cancer cell lines. […] The highest activity of 4 might be attributed to the strong binding of dithiocarbamate sulfur to gold(I) that would prevent it to interact with plasma proteins in tissues, unlike cisplatin which was strongly bound to plasma proteins through sulfur atoms of thiols (S. Ahmad. Chem. Biodiv. 2010, 7, 543-566, incorporated herein by reference in its entirety).
For orientation: Tetrazolium assays rely on reduction of a dye to a coloured formazan, in cell work by metabolically active cells.

For assay [2], the system named is MCF7 (human breast cancer) cell line. The assay is described as follows: MTT assay for in vitro cytotoxicity, MCF7. Particulars: for antiproliferative potential for MCF7 cells, in words (relative to cisplatin / within the series): comparison of IC50 values; for IC50: 24 h incubation with compound, three independent experiments, read-out: IC50 values against MCF7 cancer cell line. The method, then: as §1, §2

The test system of assay [3] is A549 (human lung carcinoma) cell line. Briefly: MTT assay for in vitro cytotoxicity, A549. The settings on record: for IC50: 24 h incubation with compound, three independent experiments, read-out: IC50 values against A549 cancer cell line; for activity against A549 cells, in words (relative to cisplatin / within the series): comparison of IC50 values. The method, then: as §1, §2

Entries after “also recorded” stand apart in the source; their conditions may differ.

As to `NCC[P+]([Au-2][P+](CCN)(c1ccccc1)c1ccccc1)(c1ccccc1)c1ccccc1` [Complex 2, [Au(AEP)2]Cl], the “antiproliferative potential for HCT15 cells, in words (relative to cisplatin / within the series)” value in assay [1] was “comparable to cisplatin”. The “antiproliferative potential for MCF7 cells, in words (relative to cisplatin / within the series)” value in assay [2] is on record as “about half with respect to cisplatin”.
For `N.N.[Cl][Pt][Cl]` [cisplatin, reference compound], the IC50 in assay [3] stood at 42.2 ± 2.01 µM; in assay [1], 32 ± 2.12 µM; in assay [2] it was 23.2 ± 3.79 µM.
Regarding [Au2(S2CN(C2H5)2)2]n [Complex 4], in assay [3], the IC50 came to 19.6 ± 0.85 µM and the “activity against A549 cells, in words (relative to cisplatin / within the series)” value is on record as “most active among the series”. For the same compound, in assay [1], the IC50 came to 38.9 ± 2.38 µM and the “antiproliferative potential for HCT15 cells, in words (relative to cisplatin / within the series)” value is recorded as “comparable to cisplatin; also recorded: most active among the series”. Besides, in assay [2], the IC50 came to 48.8 ± 1.96 µM and the “antiproliferative potential for MCF7 cells, in words (relative to cisplatin / within the series)” value was “about half with respect to cisplatin; also recorded: most active among the series”.
Take [Au2(S2CN(CH3)2)2]n [Complex 3]: in assay [3], the IC50 was 304 ± 5.9 µM and the “activity against A549 cells, in words (relative to cisplatin / within the series)” value is listed as “least effective”. For the same compound, in assay [1], the IC50 was 257 ± 3.39 µM and the “antiproliferative potential for HCT15 cells, in words (relative to cisplatin / within the series)” value is on record as “least effective”. In assay [2], the IC50 worked out at 139 ± 4.51 µM and the “antiproliferative potential for MCF7 cells, in words (relative to cisplatin / within the series)” value is on record as “least effective”.
In the case of [Au2(S2CN(CH7)2)2]n [Complex 5], the figures for the IC50 in assay [3], in assay [1] and in assay [2] were 29.2 ± 1.81 µM, 69.1 ± 3.35 µM and 76.3 ± 2.52 µM, respectively.
